# Reference: patent US20240076347A1, “METHODS FOR PREVENTING FUNGAL INFECTIONS” (Cidara Therapeutics, Inc., priority 2016, published 2024)
# Where two headings read alike, the source gives them in different places. Numbered stars: 1 amine (or outer) side, 2 acyl side, 3 side chain; on linkers, the order of the positions; unused ones are H or OH. Bridge positions count the residues as written; N and C are the ends. Square brackets hold non-standard residues; d marks the D form. Peptide text beside a SMILES is read from it. * marks the point of attachment. ξ: configuration not given here. Orn(4R-OH,5R-OCH2CH2NMe3+) = C[N+](C)(C)CCO[C@@H](N[*:3])[C@H](O)C[C@H](N[*:1])C(=O)[*:2]; pTerphenylCO(4''-OnC5H11) = CCCCCOc1ccc(-c2ccc(-c3ccc(C(=O)*)cc3)cc2)cc1; hTyr(3S-OH,4S-OH) = N[C@H](C(=O)O)[C@H](O)[C@@H](O)c1ccc(O)cc1; X1 = C[C@H]1CN([*:1])C(C(=O)[*:2])C1O; Hyp = O=C(O)[C@@H]1C[C@@H](O)CN1; ξT = CC(O)C(N)C(=O)O
# Legend:
# [1] = tested on: Aspergillus fumigatus ATCC; assay: Prophylaxis, neutropenic ICR mouse aspergillosis model, survival; format: in vivo; details: 14 days
# Description: Aspergillosis model: ICR mice (6/group) were rendered neutropenic by cyclophosphamide on Day −3 (6 mg/mouse), Day +1, and Day +4 (2 mg/mouse). Challenge with Aspergillus fumigatus ATCC via IV (100 μL, […] CFU/mouse) occurred on Day 0. Prior to challenge, mice were given one SC dose (5, 10 or 20 mg/kg) of CD101 on Day −5, Day −3, or Day −1. Survival was monitored for 14 days.
# [2] = Clinical pharmacokinetics in healthy adults (Phase 1); format: in vivo, human; details: for average 24 h AUC (free drug) over a 7 day period / free drug AUC0-168: human
# Description: The in vitro activity of CD101 was previously evaluated as part of the SENTRY international surveillance program using CLSI broth microdilution methodology (M38-A2, M27-A3; Pfaller, et al 2017). […] These susceptibility data were then compared graphically to CD101 plasma concentrations from studies in healthy adults, adjusted for plasma protein binding. Nonclinical efficacy in a murine model of Pneumocystis pneumonia were also considered to evaluate CD101 doses for clinical investigation of antifungal prophylaxis.
# [3] = Tissue distribution in SD rats after IV dose; format: in vivo; details: Sprague-Dawley, rat, 5 mg/kg IV
# Description: The in vitro activity of CD101 was evaluated against 153 A. fumigatus clinical isolates collected as part of the 2014 and 2015 JMI international SENTRY surveillance program. Susceptibility was determined by measuring the minimal effective concentration (MEC) values in accordance with CLSI broth microdilution guidelines (M38-A2). In vivo tissue distribution of CD101 in SD rats (N=3/time up to 5 d) after a 5 mg/kg IV CD101 dose. Plasma/tissue concentrations were measured by LC-MS/MS.
# C. parapsilosis = assay: Neutropenic murine disseminated candidiasis model, PK/PD target determination; format: in vivo, Candida parapsilosis; details: for Static dose: single IP dose, 168 h
# Description: Infection model. A neutropenic, murine, disseminated candidiasis model was used for the treatment studies. The mice were rendered neutropenic (polymorphonuclear cell count, <100/mm3) by injecting 150 mg/kg of cyclophosphamide (Mead Johnson Pharmaceuticals, Evansville, IN) subcutaneously 4 days before infection, 100 mg/kg of cyclophosphamide 1 day before infection, and additional cyclophosphamide doses (100 mg/kg) on Day 2 and Day 4 after infection to ensure neutropenia throughout the 168 h (7 d) study period. Three mice were included in each treatment and control group.
# The organisms were subcultured on SDA plates 24 h prior to infection. The inoculum was prepared by placing 3 to 5 colonies into 5 ml of sterile pyrogen-free 0.15 M NaCl warmed to 35° C. The final inoculum was adjusted to a 0.6 transmittance at 530 nm. The fungal count of the inoculum determined by viable counts on SDA was 6.1±0.2 log10 CFU/ml.
# Disseminated infection with the Candida strains was achieved by injection of 0.1 ml of the inoculum via the lateral tail vein 2 h prior to the start of antifungal therapy. At the end of the study period, the animals were sacrificed by CO2 asphyxiation. The kidneys of each mouse were aseptically removed and placed in 0.15 M NaCl at 4° C. The kidneys were homogenized and serially diluted 1:10, and the aliquots were plated onto SDA for viable fungal colony counts after incubation for 24 h at 35° C. The lower limit of detection was 100 CFU/ml. The results are expressed as the mean CFU/kidney for three mice.
# Treatment efficacy and pharmacodynamic target determination of CD101. Neutropenic mice were infected with one of 10 Candida strains as described above. […] Five dose levels that varied from 0.25 to 64 mg/kg were administered once in a 0.2-ml volume by IP route for the 168 h study period. Due to enhanced effect against single isolate, additional studies at 0.0156 and 0.0625 mg/kg was examined for C. glabrata 5592. Groups of three mice were used for each dosing regimen and control group. At the end of the treatment period (168 h), the mice were euthanized, and their kidneys were immediately processed for CFU determination as described above.
# Data analysis. A sigmoid dose-effect (Hill) model was used to measure the in vivo potency of CD101. The efficacy endpoints included the dose level required to produce a 24 h net static effect (no change in organism burden compared to that at the start of therapy) and the dose required to achieve a 1-log10 reduction in colony counts (relative to the burden at the start of therapy), when achieved. The maximum response (Emax) was measured as the difference in the number of CFU/kidney relative to that of the untreated control animals. The doses associated with the stasis and 1-log10 endpoint for each strain was calculated using the equation: log10 D=[log10 (E/(Emax−E))/N]+log10 ED50, where D is the drug dose, E is the control growth in untreated animals, Emax is the maximal effect, Nis the slope of the dose-response relationship, and ED50 is the dose needed to achieve 50% of the maximal effect. The associated AUC/MIC targets were then calculated for each strain. […] The calculations were performed using both total and free drug concentrations. The coefficient of determination (R^2) was used to estimate the variance that might be due to regression with the PK/PD index. Kruskal-Wallis one-way analysis of variance (ANOVA) was used to determine if the differences in PK/PD targets were significant between the species.
# [4] = tested on: Candida albicans clinical isolates; details: SENTRY surveillance (Pfaller, et al 2017); cited from earlier work
# [5] = only two strains achieved the endpoint
compound,measurement,setting,value
"CCCCCOc1ccc(-c2ccc(-c3ccc(C(=O)N[C@H]4C[C@@H](O)[C@@H](OCC[N+](C)(C)C)NC(=O)C5C(O)[C@@H](C)CN5C(=O)[C@H]([C@@H](C)O)NC(=O)[C@H]([C@H](O)[C@@H](O)c5ccc(O)cc5)NC(=O)[C@@H]5C[C@@H](O)CN5C(=O)C(C(C)O)NC4=O)cc3)cc2)cc1 (stereo partly drawn) [CD101] ({pTerphenylCO(4''-OnC5H11)}-[Orn(4R-OH,5R-OCH2CH2NMe3+)][ξT][Hyp][hTyr(3S-OH,4S-OH)]T[X1]; lactam 1-C)",survival,[1]; 5 mg/kg SC,increased survival when prophylaxis was given closer to challenge
same,increases in survival compared with vehicle,"[1]; 5, 10 and 20 mg/kg SC on Day −5, −3 or −1",> 50%
same,survival,"[1]; 10 and 20 mg/kg SC, any prophylaxis day",All animals in the 10 and 20 mg/kg groups survived
same,plasma concentrations relative to MEC90,[2]; 400 mg and 200 mg,above the MEC90 for A. fumigatus for 7 days
same,mean unbound plasma concentrations relative to MIC90,"[2]; Phase 1 subjects, single dose of 400 mg",above the MIC90 for C. albicans for seven days
same,average 24 h AUC (free drug) over a 7 day period,[2]; 200 mg dose,~2200 ng·h/mL
same,free drug AUC0-168,[2]; 200 mg dose,15400 ng·h/mL
same,average 24 h AUC (free drug) over a 7 day period,[2]; 400 mg dose,approximately 4.3 mg*h/L
same,free drug AUC0-168,[2]; 400 mg dose,30200 ng·h/mL
same,half-life,"[3]; plasma, read-out: t1/2 in plasma (converted)",39 h
same,half-life,"[3]; all tissues studied, read-out: t1/2 in tissues",40 to 77 h
same,Kp,"[3]; liver, kidney, lung, spleen, read-out: tissue/plasma exposure ratios",~4
same,Stasis 24 h Ave free drug AUC/MIC,C. parapsilosis; 20423.072,1.39
same,Stasis free drug AUC0-168 h/MIC,C. parapsilosis; 20423.072,9.74
same,Stasis total drug AUC0-168 h/MIC,C. parapsilosis; 20423.072,1217.49
same,Static dose,C. parapsilosis; 20423.072,9.62 mg/kg
same,Stasis 24 h Ave free drug AUC/MIC,C. parapsilosis; 20477.048,3.82
same,Stasis free drug AUC0-168 h/MIC,C. parapsilosis; 20477.048,26.72
same,Stasis total drug AUC0-168 h/MIC,C. parapsilosis; 20477.048,3339.42
same,Static dose,C. parapsilosis; 20477.048,52.96 mg/kg
same,median stasis 24 h free drug AUC/MIC target,C. parapsilosis; [5],2.61
same,median stasis free drug AUC0-168/MIC target,C. parapsilosis; [5],18.2
same,MIC90,[4],0.06 µg/mL
